The record followed here is patent EP0001395A2, “Substituted N-phenyl-2,5-pyrrolidinones, method for their preparation and their use as fungicides” (BAYER AG, priority 1977, dated 1979).

The test system of one assay is Botrytis cinerea. Nature of the assay: Botrytis test (beans) / protective. It is filed as in vivo. As to conditions: protective spray on Phaseolus vulgaris, inoculation after 24 h, lesion size rated 3 days after inoculation; compared with Tetramethyl-thiuramidisulfid. An excerpt: Botrytis-Test (Bohnen) / protektiv
• Lösungsmittel: 4,7 Gewichtsteile Aceton • Dispergiermittel: 0,3 Gewichtsteile Alkyl-arylpolyglykoläther • Wasser: 95,0 Gewichtsteile
Man vermischt die für die gewünschte Wirkstoffkonzentration in der Spritzflüssigkeit nötige Wirkstoffmenge mit der angegebenen Menge des Lösungsmittels und verdünnt das Konzentrat mit der angegebenen Menge Wasser, welches die genannten Zusätze enthält.
Mit der Spritzflüssigkeit bespritzt man Pflanzen von Phaseolus vulgaris im 2-Blattstadium bis zur Tropfnässe. Nach 24 Stunden werden auf jedes Blatt 2 kleine mit Botrytis cinerea bewachsene Agarstückchen aufgelegt. Die inokulierten Pflanzen werden in einer abgedunkelten, feuchten Kammer bei 20°C aufgestellt. 3 Tage nach der Inokulation wird die Größe der Befallsflecken auf den Blättern bonitiert.
Die erhaltenen Boniturwerte werden auf Prozent Befall umgerechnet. 0 % bedeutet keinen Befall, 100 % bedeutet, daß der Befallsfleck vollständig ausgebildet ist.

For a further assay, the system named is Pellicularia sasakii. Nature of the assay: Pellicularia test (rice plants). To be noted: spray on rice plants, infection of leaf sheaths rated after 5 to 8 days; compared with Zinksalz der Athylenbis-dithiocarbamidsäure. It is filed as in vivo. An excerpt:
• Lösungsmittel: 11,75 Gewichtsteile Aceton • Dispergiermittel: 0,75 Gewichtsteile Alkyl-arylpolyglykoläther • Wasser: 987,50 Gewichtsteile • andere Zusätze: - Gewichtsteile -
Man vermischt die für die gewünschte Wirkstoffkonzentration in der Spritzflüssigkeit nötige Wirkstoffmenge mit der angegebenen Menge des Lösungsmittels und des Dispergiermittels und verdünnt das Konzentrat mit der angegebenen Menge Wasser.
Mit der Spritzflüssigkeit bespritzt man 30 etwa 2-4 Wochen alte Reispflanzen bis zur Tropfnässe. Die Pflanzen verbleiben bis zum Abtrocknen in einem Gewächshaus bei Temperaturen von 22 bis 24°C und einer relativen Luftfeuchtigkeit von etwa 70 %. Die Pflanzen werden mit einer auf Malzagar gezogenen Kultur von Pellicularia sasakii inokuliert und bei 28 bis 30°C sowie 100 % relativer Luftfeuchtigkeit aufgestellt.
Bei den mit Pellicularia sasakii infizierten Pflanzen wird der Befall nach 5 bis 8 Tagen an den Blattscheiden ebenfalls im Verhältnis zur unbehandelten, aber infizierten Kontrolle bestimmt. Die Auswertung erfolgt in Wertzahlen von 1 bis 9. 1 bedeutet 100%ige Wirkung, 3= gute Wirkung, 5 = mäßige Wirkung und 9 = keine Wirkung.

In the case of `O=C1CC(C2C=CCC2)C(=O)N1c1cc(Cl)cc(Cl)c1` (centres unmarked) [Beispiel 1, N-(3,5-Dichlorphenyl)-△ ^2-cyclopenten-1-yl-bernsteinsäureimid], the Wirkung entry is listed as “gute, dem bekannten Tetramethyl-thiuramidisulfid überlegene Wirkung” in the assay on Botrytis cinerea and “gute, dem bekannten Zinksalz der Athylenbis-dithiocarbamidsäure überlegene Wirkung” in the assay with Pellicularia sasakii.
